Each structure is given as a SMILES string. Read-outs that look alike come from different tables or passages of the source.

The term ED50 denotes the dose at which the effect has come halfway, by size or by number of responders. The term LD50 denotes the dose expected to kill half of the subjects tested.

The subject of data set [1] is central amphetamine-induced hypothermia. Nature of the data set: antagonism to central amphetamine-induced hypothermia. The note with it: Mus musculus, po, read-out: Amphetamine antagonism (ED50).
A short description of data set [2]: orientative acute toxicity (7 days observation, Irwin's observational assessment of mouse behavior). The note with it: mouse, in vivo, po.
Data set [3] concerns reserpine-induced blepharospasm. Nature of the data set: antagonism to reserpine-induced blepharospasm. Format: in vivo, male mice. The note with it: Mus musculus, po, 3 h, read-out: Reserpine antagonism, Blepharospasm (ED50). The method, then: (§1) The tests were performed in an air-conditioned room at the constant temperature of 19°±1° C. Randomized groups of male mice were respectively treated by gavage with appropriate screening doses (from a maximum of 25 mg/kg below) of the test compounds, suspended in the vehicle (Methocel 0.5%; 1 ml/100 g b.w.), or with the vehicle alone.
(§2) One hour later the animals received an i.p. injection of reserpine (1.5 mg/kg; 1 ml/100 g b.w.), and one of the control groups the same volume of the vehicle alone (blank controls). Three hours after pretreatments, i.e. two hours after reserpine or vehicle treatments, blepharospasm was evaluated in scores as proposed by RUBIN et al. (J. Pharmacol., 120:125, 1957).

The subject of data set [4] is reserpine-induced hypothermia. Nature of the data set: antagonism to reserpine-induced hypothermia. Format: in vivo. The note with it: Mus musculus, po; gavage 1 h before reserpine 1.5 mg/kg i.p.; rectal temperature 2 h after blepharospasm evaluation; male mice. The protocol:
as §1, §2
Two hours after the above-mentioned evaluation the rectal temperature of the animals was recorded by an appropriate probe connected to a digital thermometer (ELLAB DU-3).

Data set [5] relates to mouse. As to the kind of experiment: orientative acute toxicity (7 days observation, Irwin's observational assessment of mouse behavior). The note with it: in mice; imipramine compared with title compounds.

Turning to `CSc1[nH]c2cccc3c2c1C[C@@H]1[C@@H]3C[C@@H](COC=CC(C)=O)CN1C` [355/1357, 2-Thiomethyl-6-methyl-8-[(3-buten-2-one)-4-oxymethyl]-ergoline], the ED50 in data set [1] was 2.5 mg/kg. The LD50 at 168 h in data set [2] is > 300 mg/kg.
Consider `CN(C)CCCN1c2ccccc2CCc2ccccc21` [imipramine, reference compound], for which the ED50 was 3.1 mg/kg in data set [3] (gavage 1 h before reserpine 1.5 mg/kg i.p., scored 2 h after reserpine, male mice) and 18.2 mg/kg in data set [4]. Moreover, the “orientative acute toxicity (in words)” value in data set [5] is reported as “quite higher orientative acute toxicity”.
For `CN1C[C@H](COC2=CC(=O)CC2)C[C@@H]2c3cccc4[nH]cc(c34)C[C@H]21` [355/1228, 6-Methyl-8-[(2-cyclopentenon)-3-oxymethyl]-ergoline], the ED50 was 0.14 mg/kg in data set [3] and 0.39 mg/kg in data set [4]. In addition, the LD50 at 168 h in data set [2] was > 600 mg/kg.
For the molecule `CN1C[C@H](CNC2=CC(=O)CC2)C[C@@H]2c3cccc4c3c(cn4C)C[C@H]21` [355/1295, 1,6-Dimethyl-8-[(2-cyclopentenon)-3-aminomethyl]-ergoline], in data set [1], the median effective dose (ED50) amounted to 1.8 mg/kg. Besides, the LD50 at 168 h in data set [2] was > 400 mg/kg.
`CN1C[C@H](COC2=CC(=O)CC2)C[C@@H]2c3cccc4[nH]c(Cl)c(c34)C[C@H]21` [355/1335, 2-Chloro-6-methyl-8-[(2-cyclopentenon)-3-oxymethyl]-ergoline]: the ED50 is 0.2 mg/kg in data set [3] and 0.3 mg/kg in data set [4]. In data set [2], the LD50 at 168 h is 200 mg/kg.
For `Cc1[nH]c2cccc3c2c1C[C@@H]1[C@@H]3C[C@@H](COC2=CC(=O)CC2)CN1C` [355/1301, 2,6-Dimethyl-8-[(2-cyclopentenon)-3-oxymethyl]-ergoline] the same measures were 0.46 mg/kg, 0.57 mg/kg and 300 mg/kg.
Regarding `CO[C@]12C[C@@H](COC3=CC(=O)CC3)CN(C)[C@@H]1Cc1cn(C)c3cccc2c13` [355/1240, 1,6-Dimethyl-8-[(2-cyclopentenon)-3-oxymethyl]-10-methoxyergoline], in data set [1], the median effective dose (ED50) worked out at 1.8 mg/kg. Further, in data set [2], the LD50 at 168 h came out at 200 mg/kg.
The like results for `CCCN1C[C@H](COC=CC(C)=O)C[C@@H]2c3cccc4[nH]cc(c34)C[C@H]21` [355/1363, 6-Propyl-8-[(3-buten-2-one)-4-oxymethyl]-ergoline] were, in that order, 2.4 mg/kg and 400 mg/kg.
For `CC(=O)C=C(C)OC[C@@H]1C[C@@H]2c3cccc4[nH]cc(c34)C[C@H]2N(C)C1` [355/1171, 6-Methyl-3-[(3-buten-2-one-4-methyl)-4-oxymethyl]-ergoline] the same measures were 0.023 mg/kg and > 800 mg/kg.
As to `CN1C[C@H](CNC2=CC(=O)CC2)C[C@@H]2c3cccc4[nH]cc(c34)C[C@H]21` [355/1206, 6-Methyl-8-[(2-cyclopentenon)-3-aminomethyl]-ergoline], the ED50 is 3.1 mg/kg in data set [3] and 7.7 mg/kg in data set [4]. The LD50 at 168 h in data set [2] was > 800 mg/kg.
For `CC(=CC#N)OC[C@@H]1C[C@@H]2c3cccc4[nH]cc(c34)C[C@H]2N(C)C1` [355/1311, 6-Methyl-8-[(3-methylacrylic nitrile)-3-oxymethyl]-ergoline] the same measures were 1.5 mg/kg, 3.4 mg/kg and 300 mg/kg.

The values above are taken from patent US4382940A (priority 1979, dated 1983).
